Literature values in patent US20060020045A1, “Methods and compositions for treating inflammatory disorders of the gastrointestinal tract” (priority 2004, published 2006).

Tested on: dimethylhydrazine-induced colon carcinogenesis
Details: effect only when present during carcinogen administration, not if given 17 weeks following the carcinogen

CC1=C(CC(=O)O)c2cc(F)ccc2/C1=C\c1ccc([S+](C)[O-])cc1 (stereo not shown) [sulindac]
tumor incidence: reduce tumor incidence only when present during carcinogen administration
